# According to patent US8673591B2, “Genetic incorporation of 3-aminotyrosine into reductases” (The Scripps Research Institute, priority 2007, dated 2014):
# Like-named read-outs stand apart in the source and are kept apart here.
# Assays:
# DH10B E. coli cells [1] = experiment: Toxicity of NH2Y: growth of E. coli in GMML medium and on agar plates; assay type: cell-based
# Text: (§1) Toxicity and uptake of NH2Y. Evolution of an NH2Y-specific aminoacyl-tRNA synthetase (RS) requires that NH2Y is taken up by E. coli, that it is not toxic, and that it is not incorporated into proteins by any endogenous RSs. All three requirements were met by NH2Y. […] The presence of DTT however, caused cells to grow at a rate 25-35% more slowly than those in the presence of only NH2Y or absence of NH2Y/DTT.
# [2] = molecular target: T1, E. coli ribonucleotide reductase (RNR) (Escherichia coli, UniProt P00452); settings: inactivation of wt α2β2 by N3ADP/dGTP; 20 s time scale; cited from earlier work
# T1 construct: made in house; host or cells: E. coli DH10B (NH2Y-α2s)
# [3] = cited from earlier work
# DH10B E. coli cells [4] = experiment: Qualitative assay for cellular uptake of NH2Y by LC-MS; assay type: cell-based; settings: 1 mM NH2Y with or without 0.1 mM DTT
# Experimental: Qualitative assay for cellular uptake of NH2Y by LC-MS. The uptake assay was performed as previously described with minor modifications.^48 DH10B E. coli cells were grown to saturation at 37° C. in GMML in the presence of 1 mM NH2Y and 0.1 mM DTT and subsequently harvested and lysed as outlined previously. Chromatography of the crude extract was performed on a Zorbax SB-C18 (5 μm, 4.6×150 mm) column with a linear gradient from 5% to 25% MeCN in 0.1% TFA solution over 8 min at 0.5 mL/min. Under these conditions, NH2Y elutes at ˜13% MeCN. For HPLC-ESI-MS analysis, NH2Y standard solutions were prepared in water.
# as §1
compound,measurement,setting,value
"O[C@H](CS)[C@H](O)CS (racemic) [DTT, DL-dithiothreitol]",slower growth rate,"DH10B E. coli cells [1]; Escherichia coli, 0.1 mM",25-35%
"[N-]=[N+]=N[C@@H]1[C@H](O)[C@@H](COP(=O)(O)OP(=O)(O)O)O[C@H]1n1cnc2c(N)ncnc21 [N3ADP, 2′-Azido-2′-deoxyadenosine-5′-diphosphate]",initial Y122• lost (equivalent amount of N• formed),[2],50-60%
"Nc1cc(C[C@H](N)C(=O)O)ccc1O [NH2Y, 3-aminotyrosine]",growth rates in the presence of substance,"DH10B E. coli cells [1]; NH2Y 1 mM, GMML medium",not significantly affected
same,reduction potential,[3]; pH 7.0,0.64 V
same,reduction potential lower than that of Y,[3]; pH 7.0,0.19 V
same,reduction potential lower than that of Y,[3]; pH 7,190 mV
same,cellular uptake (HPLC and ESI-MS of cell extracts),DH10B E. coli cells [4],observed in all cell extracts
